Results as given in publication PMC8493801, “Exploring the Monoterpene Indole Alkaloid Scaffold for Reversing P-Glycoprotein-Mediated Multidrug Resistance in Cancer” (Pharmaceuticals, 2021).

Tests used:
[1] = test system: human ABCB1-gene transfected L5178Y subline (MDR); conditions: for RR (relative resistance ratio) = IC50MDR/IC50PAR: RR ≤ 0.5 means CS effect
[2] = test system: human ABCB1-transfected L5178Y mouse lymphoma cells; test: Checkerboard combination assay with doxorubicin; assay type: cell-based; parameters: key to CI at ED50 (combination index): CI <1 synergy, =1 additive, >1 antagonism; conditions: MDR cells; for CI at ED50 (combination index): best ratio
Procedure: The in vitro interactions between the compounds and the well-known antitumor drug and P-gp substrate, doxorubicin, were evaluated in a combination chemotherapy model on human ABCB1-transfected mouse T-lymphoma cells. The nature of drug–drug interactions was assessed by determination of the combination index (CI) using the Chou and Talalay method (Figure 1), and therefore evaluated as synergistic (CI < 1), additive (CI = 1), or antagonistic (CI > 1).
Doxorubicin (2 mg/mL, Teva Pharmaceuticals, Budapest, Hungary) was serially diluted horizontally in 100 µL as previously described, starting with 8.6 µM. The resistance modifier was subsequently diluted vertically in 50 µL; the starting concentration was determined based on the IC50. […] The checkerboard plates were kept for 72 h at 37 °C in a CO2 incubator, and at the end of the incubation period, the cell growth was determined by MTT staining method, as described earlier. Drug interactions were evaluated using Calcusyn software. Each dose–response curve (for individual agents as well as combinations) was fit to a linear model using the median effect equation in order to obtain the median effect value (corresponding to the IC50) and slope (m). The goodness-of-fit was assessed using the linear correlation coefficient, r, and only data from analysis with r > 0.90 were presented. The extent of interaction between drugs was expressed using the combination index, in which a CI value close to 1 indicates additivity, while a CI < 1 is defined as synergy and a CI > 1 as antagonism.

[3] = test system: sensitive L5178Y mouse T-lymphoma cells (PAR); test: MTT antiproliferative assay, sensitive cells; assay type: cell-based; conditions: 72 h, mean ± SD
Procedure: (§1) Non-cancer mouse embryonic fibroblasts (NIH/3T3) were also used.
(§2) L5178Y mouse T-lymphoma cells (ECACC catalog no. 87111908, US FDA, Silver Spring, MD, USA) were transfected with the pHa MDR1/A retrovirus as previously reported. The ABCB1 (P-gp) overexpressing cells were selected by culturing the infected cells with 60 ng/mL of colchicine (Sigma-Aldrich Chemie GmbH, Steinheim, Germany) to preserve the MDR phenotype. L5178Y (parental, PAR) mouse T-cell lymphoma cells and the human ABCB1-transfected subline were cultured in McCoy’s 5A supplemented with 10% heat-inactivated horse serum, 100 U/L L-glutamine, and 100 mg/L penicillin-streptomycin mixture, all obtained from Sigma-Aldrich. The mouse embryonic fibroblast (NIH 3T3) cell line was purchased from ATCC (CRL-1658) and was cultured in DMEM medium supplemented with 10% fetal bovine serum. These adherent cells were detached using 0.25% trypsin and 0.02% EDTA for 5 min at 37 °C. Before the antiproliferative assay using NIH 3T3 cell line, the cells were seeded in untreated 96-well flat bottomed microtiter plates, following a 4 h incubation period in a humidified atmosphere (5% CO2, 95% air) at 37 °C.
The assay was performed according to the previously applied experimental settings.

[4] = target: T1, recombinant human P-gp membranes (Homo sapiens, UniProt P08183); test: P-gp ATPase activity assay (Pgp-Glo); assay type: biochemical; conditions: 25 µM
T1 construct: purchased Promega
Description: Once it was established that ATP hydrolysis is directly associated with the P-gp efflux activity, the interaction mode between selected compounds (12, 17, 18, 20, and 29) and this transporter protein was further investigated using human P-gp membranes in the ATPase activity assay (P-gp-Glo^TM) to gather insights about their interaction with P-gp activity, namely, as stimulators or inhibitors. This ATPase activity assay is based on the ATP dependence of the light-generating reaction of firefly luciferase. After incubating P-gp with ATP, the reaction is stopped, and the ATP consumption by P-gp is given by a luciferase-generated luminescent signal due to the remaining unmetabolized ATP. Thus, a greater decrease in the signal means a higher P-gp activity.
Sodium orthovanadate (Vanadate, Na3VO4) is an inhibitor of P-gp ATPase activity; thus, after treating samples with vanadate, no P-gp-dependent ATP consumption is observed. Therefore, the P-gp basal ATP consumption (basal activity) is defined as the difference between the luminescent signal of samples treated with vanadate and untreated. Consequently, the tested compounds were ranked as stimulators or inhibitors by comparing their P-gp ATPase activity with the basal activity. Verapamil (0.5 mM), a known P-gp substrate and activator of the ATPase activity of this transporter, thus causing a decrease in the percentage of luminescence of luciferase when compared with untreated samples (Figure 2), was used as control. The results are represented in Figure 2 as the difference between the luminescence of luciferase observed when treated with the compounds and with vanadate in comparison with the basal activity (100%).
The P-glycoprotein ATPase activity was determined using the Pgp-Glo^TM Assay Systems Promega kit according to the manufacturer’s instructions. Briefly, 20 µL of recombinant human P-gp membranes (1.25 mg/mL), expressing high levels of human P-gp, were incubated in 20 µL of Pgp-Glo^TM assay buffer for 5 min at 37 °C. Compounds were tested at 25 µM sodium orthovanadate (Na3VO4, 0.25 mM) as an inhibitor control, verapamil as a substrate control (0.5 mM), and DMSO at 2% as solvent control. The reaction was initiated by adding 10 µL of 25 mM MgATP and incubated at 37 °C for 40 min. The ATPase reaction was stopped, and after adding 50 µL of ATP Detection Reagent, the samples were incubated at room temperature for 20 min. The luciferase-generated luminescent signal emitted was measured in a CLARIOstar Plus plate reader (BMG Labtech, UK) at 580 nm. The % of basal P-gp activity was calculated through the ratio between the luminescence measured of the P-gp ATPase activity of each compound and the basal activity according to Equation (4).
(4) % basal P-gp activity = LumNa3VO4−Lumtreated/LumNa3VO4−Lumuntreated×100%
Figure 2 Effect of compounds 12, 17, 18, 20, 29, and verapamil (VER) on P-gp ATPase activity. The compounds are identified as P-gp substrates if they stimulate its basal activity (>100%) or as modulators when inhibiting basal activity (<100%). Compounds were tested at 25 µM and verapamil at 0.5 mM. Results were calculated as the means ± SD from experiments performed in triplicates.

[5] = test system: mouse embryonic fibroblasts (NIH/3T3); test: MTT antiproliferative assay, non-cancer cells; assay type: cell-based; conditions: for SI C/B (Selectivity Index): IC50 NIH/3T3 / IC50 MDR; for SI C/A (Selectivity Index): IC50 NIH/3T3 / IC50 PAR; for IC50: NIH3T3, non-cancer mouse embryonic fibroblasts, MTT, read-out: IC50 NIH/3T3 (C)
Procedure: as §1
In addition, the antiproliferative activity of the compounds was also evaluated on non-cancerous mouse embryonic fibroblast cells (NIH/3T3), whose values were compared with those of PAR and MDR cells by evaluation of the selective index (SI) values. […] The highest selective index values (SIC/A = 9.39; SIC/B = 10.79) were found for the derivative bearing the trimethoxyphenyl substituent (17).
as §2

T1 sequence (P08183 whole entry): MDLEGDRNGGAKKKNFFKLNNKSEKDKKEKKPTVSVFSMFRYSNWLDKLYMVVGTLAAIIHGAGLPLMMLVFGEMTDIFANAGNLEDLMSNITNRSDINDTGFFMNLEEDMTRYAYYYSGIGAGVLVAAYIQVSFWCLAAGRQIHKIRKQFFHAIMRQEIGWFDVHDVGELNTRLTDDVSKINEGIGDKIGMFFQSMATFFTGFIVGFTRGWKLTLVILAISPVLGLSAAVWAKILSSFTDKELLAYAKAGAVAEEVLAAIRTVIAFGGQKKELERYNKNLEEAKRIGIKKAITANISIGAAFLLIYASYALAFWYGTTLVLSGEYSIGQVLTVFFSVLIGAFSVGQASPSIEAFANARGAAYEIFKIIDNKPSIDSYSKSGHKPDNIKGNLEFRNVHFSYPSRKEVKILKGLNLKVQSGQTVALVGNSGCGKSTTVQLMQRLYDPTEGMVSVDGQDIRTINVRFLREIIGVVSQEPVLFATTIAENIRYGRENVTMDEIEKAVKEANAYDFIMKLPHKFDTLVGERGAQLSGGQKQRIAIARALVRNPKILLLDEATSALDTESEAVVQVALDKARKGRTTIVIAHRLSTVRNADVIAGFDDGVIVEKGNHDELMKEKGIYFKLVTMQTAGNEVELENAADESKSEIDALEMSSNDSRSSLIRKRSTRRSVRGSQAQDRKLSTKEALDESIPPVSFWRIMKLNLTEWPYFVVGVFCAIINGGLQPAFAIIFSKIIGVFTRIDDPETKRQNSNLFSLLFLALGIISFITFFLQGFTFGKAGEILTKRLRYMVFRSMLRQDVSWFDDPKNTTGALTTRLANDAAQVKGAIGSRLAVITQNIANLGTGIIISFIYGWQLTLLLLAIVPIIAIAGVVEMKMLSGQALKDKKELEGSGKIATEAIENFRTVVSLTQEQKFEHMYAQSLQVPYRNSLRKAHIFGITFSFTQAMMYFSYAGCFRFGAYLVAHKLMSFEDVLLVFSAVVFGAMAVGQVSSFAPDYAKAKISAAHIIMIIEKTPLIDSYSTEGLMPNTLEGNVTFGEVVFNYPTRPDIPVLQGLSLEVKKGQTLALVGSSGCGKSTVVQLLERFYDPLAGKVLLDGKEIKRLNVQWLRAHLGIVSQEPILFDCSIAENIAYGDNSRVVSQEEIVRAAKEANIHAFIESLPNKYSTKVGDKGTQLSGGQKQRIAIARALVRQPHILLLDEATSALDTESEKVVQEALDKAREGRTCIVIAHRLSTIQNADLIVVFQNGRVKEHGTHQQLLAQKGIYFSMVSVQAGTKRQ

CCC1CN(C)C2Cc3c([nH]c4ccccc34)C(=NN=Cc3ccc(N(C)C)cc3)CC1C2C(=O)OC (centres unmarked) [Compound 12, 3-[(4″-(dimethylamino)benzylidene)hydrazineylidene]dregamine]
IC50 [1]: 7.42 ± 0.48 µM
RR (relative resistance ratio) = IC50MDR/IC50PAR [1]: 0.58
Interaction [2]: Strong Synergism
CI at ED50 (combination index) [2]: 0.231
IC50 [3]: 12.8 ± 0.16 µM
Effect on P-gp ATPase activity [4]: stimulating the P-gp activity
SI C/B (Selectivity Index) [5]: 1.91
SI C/A (Selectivity Index) [5]: 1.10
IC50 [5]: 14.2 ± 0.59 µM

CCC1CN(C)C2Cc3c([nH]c4ccccc34)C(=NN=Cc3cc(OC)c(OC)c(OC)c3)CC1C2C(=O)OC (centres unmarked) [Compound 17, 3-[(3″,4″,5″-trimethoxybenzylidene)hydrazineylidene]dregamine]
IC50 [1]: 7.9 ± 0.44 µM
RR (relative resistance ratio) = IC50MDR/IC50PAR [1]: 0.87
Interaction [2]: Synergism
CI at ED50 (combination index) [2]: 0.309
IC50 [3]: 9.07 ± 0.67 µM
Effect on P-gp ATPase activity [4]: inhibitors of P-gp ATPase activity
% basal P-gp activity ([4]; basal activity = 100%): < 100%
SI C/B (Selectivity Index) [5]: 10.79
SI C/A (Selectivity Index) [5]: 9.39
IC50 [5]: 85.2 ± 1.62 µM

CCC1CN(C)C2Cc3c([nH]c4ccccc34)C(=NNC(=O)NC(C)(C)C)CC1C2C(=O)OC (centres unmarked) [Compound 23]
IC50 [1]: 12.3 ± 1.8 µM
Interaction [2]: Strong Synergism
CI at ED50 (combination index) [2]: 0.163
IC50 [3]: 26.3 ± 0.5 µM
SI C/B (Selectivity Index) [5]: >8.11
SI C/A (Selectivity Index) [5]: >3.81
IC50 [5]: > 100 µM

CCC1CN(C)C2Cc3c([nH]c4ccccc34)C(=NNC(=O)NC3CCCCC3)CC1C2C(=O)OC (centres unmarked) [Compound 24]
IC50 [1]: 5.69 ± 0.71 µM
Interaction [2]: Synergism
CI at ED50 (combination index) [2]: 0.301
IC50 [3]: 12.85 ± 0.12 µM
SI C/B (Selectivity Index) [5]: 4.68
SI C/A (Selectivity Index) [5]: 2.07
IC50 [5]: 26.6 ± 0.31 µM

CCC1CN(C)C2Cc3c([nH]c4ccccc34)C(=NNC(=O)Nc3ccccc3)CC1C2C(=O)OC (centres unmarked) [Compound 25]
IC50 [1]: 10.8 ± 0.71 µM
RR (relative resistance ratio) = IC50MDR/IC50PAR [1]: 0.83
Interaction [2]: Synergism
CI at ED50 (combination index) [2]: 0.345
IC50 [3]: 12.95 ± 0.04 µM
SI C/B (Selectivity Index) [5]: 2.56
SI C/A (Selectivity Index) [5]: 2.13
IC50 [5]: 27.6 ± 0.81 µM

CCC1CN(C)C2Cc3c([nH]c4ccccc34)C(=NNC(=O)Nc3ccc(C)cc3)CC1C2C(=O)OC (centres unmarked) [Compound 26]
IC50 [1]: 8.22 ± 1.1 µM
RR (relative resistance ratio) = IC50MDR/IC50PAR [1]: 0.87
Interaction [2]: Synergism
CI at ED50 (combination index) [2]: 0.36
IC50 [3]: 9.41 ± 0.13 µM
SI C/B (Selectivity Index) [5]: 3.15
SI C/A (Selectivity Index) [5]: 2.75
IC50 [5]: 25.9 ± 0.81 µM

CCC1CN(C)C2Cc3c([nH]c4ccccc34)C(=NNC(=O)Nc3ccc(OC)cc3)CC1C2C(=O)OC (centres unmarked) [Compound 27, 3-[2″-((4‴-methoxyphenyl)carbamoyl)hydrazineylidene]dregamine]
IC50 [1]: 6.37 ± 0.83 µM
RR (relative resistance ratio) = IC50MDR/IC50PAR [1]: 0.92
Interaction [2]: Strong Synergism
CI at ED50 (combination index) [2]: 0.225
IC50 [3]: 6.88 ± 0.35 µM
SI C/B (Selectivity Index) [5]: 6.32
SI C/A (Selectivity Index) [5]: 5.84
IC50 [5]: 40.2 ± 3.49 µM

CCC1CN(C)C2Cc3c([nH]c4ccccc34)C(=NNC(=O)Nc3ccc(Cl)cc3)CC1C2C(=O)OC (centres unmarked) [Compound 28, 3-[2″-((4‴-chlorophenyl)carbamoyl)hydrazineylidene]dregamine]
IC50 [1]: 5.21 ± 0.09 µM
RR (relative resistance ratio) = IC50MDR/IC50PAR [1]: 0.84
Interaction [2]: Strong Synergism
CI at ED50 (combination index) [2]: 0.158
IC50 [3]: 6.22 ± 0.59 µM
SI C/B (Selectivity Index) [5]: 2.45
SI C/A (Selectivity Index) [5]: 2.06
IC50 [5]: 12.8 ± 0.95 µM

CCC1CN(C)C2Cc3c([nH]c4ccccc34)C(=NNC(=O)Nc3ccc([N+](=O)[O-])cc3)CC1C2C(=O)OC (centres unmarked) [Compound 30, 3-[2″-((4‴-nitrophenyl)carbamoyl)hydrazineylidene]dregamine]
IC50 [1]: 4.83 ± 0.05 µM
RR (relative resistance ratio) = IC50MDR/IC50PAR [1]: 0.80
Interaction [2]: Synergism
CI at ED50 (combination index) [2]: 0.423
IC50 [3]: 6.04 ± 0.36 µM
SI C/B (Selectivity Index) [5]: 2.90
SI C/A (Selectivity Index) [5]: 2.32
IC50 [5]: 14 ± 0.92 µM

CCC1CN(C)C2Cc3c([nH]c4ccccc34)C(=NNC(=O)Nc3ccc(C(F)(F)F)cc3)CC1C2C(=O)OC (centres unmarked) [Compound 31, 3-[2″-((4‴-(trifluoromethyl)phenyl)carbamoyl)hydrazineylidene]dregamine]
IC50 [1]: 6.48 ± 0.25 µM
RR (relative resistance ratio) = IC50MDR/IC50PAR [1]: 0.93
Interaction [2]: Strong Synergism
CI at ED50 (combination index) [2]: 0.296
IC50 [3]: 6.97 ± 0.12 µM
SI C/B (Selectivity Index) [5]: 1.03
SI C/A (Selectivity Index) [5]: 0.96
IC50 [5]: 6.7 ± 0.06 µM

CCC1CN(C)C2Cc3c([nH]c4ccccc34)C(=NNC(=O)NCCCc3ccccc3)CC1C2C(=O)OC (centres unmarked) [Compound 32, 3-[2″-((3-phenylpropyl)carbamoyl)hydrazineylidene]dregamine]
IC50 [1]: 4.46 ± 1.38 µM
RR (relative resistance ratio) = IC50MDR/IC50PAR [1]: 0.65
Interaction [2]: Synergism
CI at ED50 (combination index) [2]: 0.384
IC50 [3]: 6.82 ± 0.64 µM
SI C/B (Selectivity Index) [5]: 2.13
SI C/A (Selectivity Index) [5]: 1.39
IC50 [5]: 9.51 ± 0.52 µM
